Experimental findings from publication PMC9951879, “Synthesis of New Shogaol Analogues as NRF2 Activators and Evaluation of Their Anti-Inflammatory Activity, Modes of Action and Metabolic Stability” (Antioxidants, 2023) are described below.

A word on the IC50: it is the point on the concentration scale where inhibition reaches its midpoint. In general, half-life refers to how long it takes for the measured level to halve. A lower half-life goes with rapid decline.

For series [1], the system named is NAD(P)H quinone oxidoreductase 1 (NQO1). The series is described as follows: Prochaska microtiter plate bioassay, NQO1 induction in Hepa-1c1c7 cells. Format: cell-based, mouse. Conditions: Mus musculus, Hepa-1c1c7, 48 h, Hepa-1c1c7 cells, 48 h; read-out: CD (concentration required to double the NQO1 level). The method, then: The effect of shogaol thiophene compounds (STCs) on NRF2 activation is determined by measuring the NAD(P)H quinone oxidoreductase 1 (NQO1) inducer activity, as reported in our previous studies. The mouse hepatoma cells (Hepa-1c1c7, 1 × 10^4 per well) were incubated with STCs (10, 1, 0.1, 0.01, and 0.001 µM) for 48 h. The cells were lysed using digitonin (0.8 mg/mL and 2 mM EDTA; Acros, UK), and the protein concentration was determined using Bradford’s assay kit (Thermo Fisher Scientific, USA). The cell lysate was incubated with a reaction mixture of 0.5 M Tris-Cl buffer (Calbiochem, USA), 7.5 mM FAD (Acros, UK), 150 mM glucose-6-phosphate (Calbiochem, San Diego, CA, USA), 2 U/mL glucose-6-phosphate dehydrogenase (Calbiochem, USA), 50 mM NADP+ (Sigma Aldrich, USA), 25 mM menadione (Sigma Aldrich, USA), and 0.7 mM MTT (Sigma Aldrich, USA) at 37 °C for 5 min. The absorbance was recorded at 610 nm using a microplate reader (Spectramax M3, Molecular Devices, San Jose, CA, USA), and the values were normalised to the total protein content.

The target in series [2] is T1, KEAP1-NRF2 interaction (Homo sapiens, UniProt Q14145).
T1 construct: purchased BPS Bioscience
T1 sequence (Q14145 2-624 limits assumed): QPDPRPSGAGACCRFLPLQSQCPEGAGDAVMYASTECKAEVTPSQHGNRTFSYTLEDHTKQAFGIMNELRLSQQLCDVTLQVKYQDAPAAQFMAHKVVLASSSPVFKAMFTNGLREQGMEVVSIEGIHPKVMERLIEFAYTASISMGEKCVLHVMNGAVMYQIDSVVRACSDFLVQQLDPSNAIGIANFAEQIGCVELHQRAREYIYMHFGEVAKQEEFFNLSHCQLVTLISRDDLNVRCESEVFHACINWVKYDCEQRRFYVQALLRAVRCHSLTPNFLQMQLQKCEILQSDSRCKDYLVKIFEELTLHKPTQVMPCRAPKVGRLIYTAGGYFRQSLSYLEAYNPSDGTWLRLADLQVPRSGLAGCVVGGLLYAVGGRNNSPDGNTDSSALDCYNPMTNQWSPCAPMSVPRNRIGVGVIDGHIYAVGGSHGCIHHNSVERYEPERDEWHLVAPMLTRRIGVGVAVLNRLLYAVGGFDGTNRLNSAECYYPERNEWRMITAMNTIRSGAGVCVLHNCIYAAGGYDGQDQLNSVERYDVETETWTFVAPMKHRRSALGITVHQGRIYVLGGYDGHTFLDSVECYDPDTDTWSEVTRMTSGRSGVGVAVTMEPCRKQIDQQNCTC
The series is described as follows: KEAP1-Nrf2 inhibitor screening, fluorescence polarisation assay. It counts as binding. The note with it: KEAP1 Kelch domain, read-out: IC50, NRF2-KEAP1 inhibition. As for the experimental part: The KEAP1-Nrf2 inhibitor screening assay kit (BPS Bioscience, San Diego, California, USA) was used to determine the effect of STCs in inhibiting KEAP1-NRF2 interaction following the manufacturer’s protocol and our reported method. The STC solutions were diluted with the assay buffer, and 5 μL of the STC solutions were incubated at room temperature for 30 min in the peptide mixture containing 0.5 μL NRF2 peptide (1 μM) and 20 μL KEAP1 (15 ng/μL). The fluorescence polarisation (FP) was measured using a microplate reader at λex 485 nm and λem 530 nm. The following equation was used to determine the per cent KEAP1-NRF2 inhibitory effect of the STCs. Keap1−Nrf2 inhbitory activity %=1−Relative FP of STC/Relative FP of postive control×100
For orientation: Fluorescence polarisation rises when a labelled molecule tumbles more slowly, as on binding a larger partner.

Series [3] concerns the target T2, GSK-3β (Homo sapiens, UniProt P49841).
T2 construct: purchased Promega
The series is described as follows: GSK-3β kinase ADP-Glo assay. Format: biochemical. Conditions: ATP 25 μM, read-out: IC50, GSK-3β enzyme activity. As for the experimental part: The effect of STCs on GSK-3β activity was determined using GSK-3β kinase enzyme (Promega, WI, USA) and ADP-Glo^TM kinase assay (Promega, USA) following the manufacturer’s protocol and reported method. The STCs were dissolved in the kinase buffer to prepare different concentrations (10, 1, 0.1, 0.01, and 0.001 μM). One microliter of the test compounds was added to each well (384 well plate), followed by the addition of 2 μL of GSK-3β kinase (1 ng), 2 μL of the GSK-3β substrate (0.4 μg), and 2 μL of the ATP (25 μM), and incubated for 60 min. Then, 5 μL of ADP-Glo^TM reagent was added and incubated further for 40 min. Then 10 μL of kinase detection reagent was added and incubated for 30 min. The luminescence was recorded using a SpectraMax®L microplate reader (Molecular Devices, San Jose, CA, USA). The IC50 (concentration of the test compound required to produce half-maximal […]) from dose-response curves using non-linear regression analysis using GraphPad Prism (9.5.0; San Diego, CA, USA) software.
(ADP-Glo turns the ADP formed in a reaction into a luminescent signal.)

A short description of series [4]: Liver microsomal stability, human. Format: in vitro ADME. Conditions: human liver microsomes, 1 μM (verapamil 0.5 μM). As for the experimental part: (§1) The liver microsomes of humans, rats, and mice were purchased from Merck (human, #M0567; rat, #M9066; mouse, #M9441). The metabolic stability of 6-shogaol and STCs (1 μM effective concentration; 5 μL) was mixed with liver microsomes (0.5 mg mL^−1; 445 μL) in a microcentrifuge tube. Verapamil (0.5 μM) was used as the positive control. The microsome and compound mixture were shaken on a plate shaker for 5 min to ensure homogeneity. NADPH (1 mM; 50 μL) was added to the mixture to start the metabolic reaction. The reaction mixture was incubated at 37 °C for 0, 3, 6, 15, 30, 45, and 60 min. The mixture (20 μL) was sampled and quenched with 180 μL of acetonitrile with internal standard (Donepezil 50 ng/mL) to terminate the metabolic reaction at each time point. Ultrapure water (80 μL) was added, and contents in the microcentrifuge tubes were centrifuged at 3800 rpm at 4 °C for 10 min. […] Each set of experiments was repeated three times in human, rat, and mouse liver microsomes. The concentration of the compounds versus time was plotted to determine the elimination rate constant (Kel). The intrinsic clearance (Clint) and half-life (t1/2) were calculated using the following equations.

Series [5] can be described thus: Liver microsomal stability, rat. The note with it: rat liver microsomes, 1 μM (verapamil 0.5 μM). It counts as in vitro ADME. As for the experimental part:
as §1
In general terms: Microsomes from liver hold many membrane-bound enzymes, among them those of drug oxidation.

Series [6] in a line: Liver microsomal stability, mouse. It counts as in vitro ADME. The note with it: mouse liver microsomes, 1 μM (verapamil 0.5 μM). As for the experimental part:
as §1

T2 sequence (P49841 whole entry): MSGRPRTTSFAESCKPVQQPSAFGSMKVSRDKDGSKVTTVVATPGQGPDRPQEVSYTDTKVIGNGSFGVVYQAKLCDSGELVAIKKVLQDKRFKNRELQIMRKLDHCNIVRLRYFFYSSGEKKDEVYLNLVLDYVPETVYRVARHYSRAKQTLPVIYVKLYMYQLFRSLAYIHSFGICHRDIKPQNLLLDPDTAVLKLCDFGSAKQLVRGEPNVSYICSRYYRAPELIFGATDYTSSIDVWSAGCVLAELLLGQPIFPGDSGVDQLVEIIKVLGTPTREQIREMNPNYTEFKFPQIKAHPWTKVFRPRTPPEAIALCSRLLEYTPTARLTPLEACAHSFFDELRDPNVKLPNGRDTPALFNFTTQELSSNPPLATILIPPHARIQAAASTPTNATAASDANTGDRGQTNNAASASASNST

For `COc1cc(CCC(=O)/C=C/c2cccs2)ccc1O` [STC2, (E)-5-(4-Hydroxy-3-methoxyphenyl)-1-(thiophen-2-yl)pent-1-en-3-one], in series [1], the EC (2-fold NQO1 induction) worked out at 2.65 ± 0.27 µM. The IC50 in series [2] is 0.63 µM; in series [3], 0.32 µM. The Clint in series [4] was determined as 6.85 ± 1.62 mL/min/g liver; in series [5], 9.46 ± 1.85 mL/min/g liver; in series [6], 10.64 ± 1.66 mL/min/g liver. The half-life at 1 μM worked out at 10.6 min in series [4], 7.69 min in series [5] and 6.84 min in series [6].
`CCc1ccc(/C=C/C(=O)CCc2ccc(O)c(OC)c2)s1` [STC7, (E)-5-(4-Hydroxy-3-methoxyphenyl)-1-(5-ethylthiophen-2-yl)pent-1-en-3-one]: the EC (2-fold NQO1 induction) in series [1] came out at 1.48 ± 0.34 µM. The IC50 in series [2] was determined as 0.35 µM; in series [3], 0.19 µM. For the same compound, the Clint stood at 6.27 ± 1.44 mL/min/g liver in series [4], 8.52 ± 1.16 mL/min/g liver in series [5] and 7.85 ± 2.51 mL/min/g liver in series [6]. In addition, the results for the half-life at 1 μM in series [4], in series [5] and in series [6] were 11.6 min, 8.54 min and 9.27 min, respectively.
`COc1cc(CCC(=O)/C=C/c2sccc2C)ccc1O` [STC3, (E)-5-(4-Hydroxy-3-methoxyphenyl)-1-(3-methylthiophen-2-yl)pent-1-en-3-one]: the EC (2-fold NQO1 induction) in series [1] was 1.84 ± 0.15 µM. Besides, the IC50 is 0.54 µM in series [2] and 0.24 µM in series [3]. The Clint in series [4] is given as 6.18 ± 1.34 mL/min/g liver; in series [5], 9.65 ± 1.54 mL/min/g liver; in series [6], 9.27 ± 2.14 mL/min/g liver. Moreover, the half-life at 1 μM was 11.8 min in series [4], 7.54 min in series [5] and 7.85 min in series [6].
As to `COc1cc(CCC(=O)/C=C/c2cc(Br)cs2)ccc1O` [STC4, (E)-5-(4-Hydroxy-3-methoxyphenyl)-1-(4-bromothiophen-2-yl)pent-1-en-3-one], in series [1], the EC (2-fold NQO1 induction) was 0.43 ± 0.09 µM. Besides, the figures for the 50% inhibitory concentration (IC50) in series [2] and in series [3] were 0.28 µM and 0.13 µM, respectively. Further, the results for the Clint in series [4], in series [5] and in series [6] were 6.35 ± 1.79 mL/min/g liver, 8.79 ± 1.94 mL/min/g liver and 9.67 ± 1.23 mL/min/g liver, respectively. Further, the results for the half-life at 1 μM in series [4], in series [5] and in series [6] were 11.5 min, 8.28 min and 7.52 min, respectively.
As to `COc1cc(CCC(=O)/C=C/c2ccsc2)ccc1O` [STC1, (E)-5-(4-Hydroxy-3-methoxyphenyl)-1(thiophen-3-yl)pent-1-en-3-one], the EC (2-fold NQO1 induction) in series [1] was found to be 4.19 ± 0.44 µM. For the same compound, the IC50 in series [2] came out at 0.86 ± 0.11 µM; in series [3] it was 0.42 ± 0.08 µM. For the same compound, the Clint in series [4] was found to be 7.15 ± 1.24 mL/min/g liver; in series [5], 10.63 ± 1.25 mL/min/g liver; in series [6] it was 11.24 ± 1.43 mL/min/g liver. Moreover, the half-life at 1 μM in series [4] was determined as 10.2 min; in series [5], 6.85 min; in series [6] it was 6.47 min.
Consider `COc1cc(CCC(=O)/C=C/c2ccc(Br)s2)ccc1O` [STC6, (E)-5-(4-Hydroxy-3-methoxyphenyl)-1-(5-bromothiophen-2-yl)pent-1-en-3-one], for which, in series [1], the EC (2-fold NQO1 induction) was found to be 0.42 ± 0.11 µM. Also, the IC50 in series [2] was 0.29 µM; in series [3], 0.14 µM. Besides, the Clint was 5.32 ±1.08 mL/min/g liver in series [4], 8.17 ± 1.74 mL/min/g liver in series [5] and 7.23 ± 1.34 mL/min/g liver in series [6]. Also, the half-life at 1 μM was determined as 13.7 min in series [4], 8.91 min in series [5] and 10.1 min in series [6].
